This is an account of results in ChEMBL document CHEMBL5291721, “A preclinical secondary pharmacology resource illuminates target-adverse drug reaction associations of marketed drugs” (Nat Commun, 2023).

Molecules are shown by their SMILES. Where a SMILES comes first, the peptide text is derived from it. A value given as a limit tells only on which side of the number the result lay.

The target of assay [1] is T1, Alpha-2B adrenergic receptor (Homo sapiens, UniProt P18089).
T1 sequence (P18089 whole entry): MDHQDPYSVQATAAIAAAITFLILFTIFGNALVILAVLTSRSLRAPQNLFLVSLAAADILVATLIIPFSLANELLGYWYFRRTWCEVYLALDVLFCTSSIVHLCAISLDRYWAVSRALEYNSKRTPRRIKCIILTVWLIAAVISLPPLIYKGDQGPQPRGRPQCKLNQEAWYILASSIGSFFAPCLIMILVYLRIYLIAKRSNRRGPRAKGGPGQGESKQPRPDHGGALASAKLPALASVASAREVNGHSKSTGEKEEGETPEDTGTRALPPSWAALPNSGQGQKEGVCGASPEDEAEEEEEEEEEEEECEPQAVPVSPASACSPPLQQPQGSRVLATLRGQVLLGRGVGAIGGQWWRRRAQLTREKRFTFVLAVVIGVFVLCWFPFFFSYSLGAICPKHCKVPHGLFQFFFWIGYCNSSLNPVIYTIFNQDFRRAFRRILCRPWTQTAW

A further assay addresses Histamine H1 receptor (Homo sapiens, UniProt P35367).
Assay [2] addresses 5-hydroxytryptamine receptor 2B (Homo sapiens, UniProt P41595). It counts as functional, cell-based.
The target in another assay is T2, Glucocorticoid receptor (Homo sapiens, UniProt P04150).
T2 sequence (P04150 whole entry): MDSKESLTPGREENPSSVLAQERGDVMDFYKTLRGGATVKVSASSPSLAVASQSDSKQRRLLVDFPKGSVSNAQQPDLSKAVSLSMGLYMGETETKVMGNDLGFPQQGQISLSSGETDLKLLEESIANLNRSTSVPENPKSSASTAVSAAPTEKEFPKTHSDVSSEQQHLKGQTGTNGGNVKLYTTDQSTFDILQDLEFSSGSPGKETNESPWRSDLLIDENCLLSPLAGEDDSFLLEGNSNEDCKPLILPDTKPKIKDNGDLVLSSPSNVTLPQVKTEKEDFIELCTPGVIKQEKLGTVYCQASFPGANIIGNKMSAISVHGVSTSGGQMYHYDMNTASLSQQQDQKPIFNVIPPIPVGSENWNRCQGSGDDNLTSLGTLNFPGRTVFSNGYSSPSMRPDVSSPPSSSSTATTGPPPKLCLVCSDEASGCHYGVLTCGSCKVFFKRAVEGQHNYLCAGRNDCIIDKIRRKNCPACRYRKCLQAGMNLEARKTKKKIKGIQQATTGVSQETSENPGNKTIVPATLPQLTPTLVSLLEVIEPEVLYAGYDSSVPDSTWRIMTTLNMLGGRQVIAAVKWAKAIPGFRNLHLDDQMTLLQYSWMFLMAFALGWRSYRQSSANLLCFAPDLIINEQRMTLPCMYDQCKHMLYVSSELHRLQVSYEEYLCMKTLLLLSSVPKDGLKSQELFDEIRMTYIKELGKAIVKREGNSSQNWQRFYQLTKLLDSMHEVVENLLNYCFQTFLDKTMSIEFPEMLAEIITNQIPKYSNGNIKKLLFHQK

The target in another assay is T3, Progesterone receptor (Homo sapiens, UniProt P06401).
T3 sequence (P06401 whole entry): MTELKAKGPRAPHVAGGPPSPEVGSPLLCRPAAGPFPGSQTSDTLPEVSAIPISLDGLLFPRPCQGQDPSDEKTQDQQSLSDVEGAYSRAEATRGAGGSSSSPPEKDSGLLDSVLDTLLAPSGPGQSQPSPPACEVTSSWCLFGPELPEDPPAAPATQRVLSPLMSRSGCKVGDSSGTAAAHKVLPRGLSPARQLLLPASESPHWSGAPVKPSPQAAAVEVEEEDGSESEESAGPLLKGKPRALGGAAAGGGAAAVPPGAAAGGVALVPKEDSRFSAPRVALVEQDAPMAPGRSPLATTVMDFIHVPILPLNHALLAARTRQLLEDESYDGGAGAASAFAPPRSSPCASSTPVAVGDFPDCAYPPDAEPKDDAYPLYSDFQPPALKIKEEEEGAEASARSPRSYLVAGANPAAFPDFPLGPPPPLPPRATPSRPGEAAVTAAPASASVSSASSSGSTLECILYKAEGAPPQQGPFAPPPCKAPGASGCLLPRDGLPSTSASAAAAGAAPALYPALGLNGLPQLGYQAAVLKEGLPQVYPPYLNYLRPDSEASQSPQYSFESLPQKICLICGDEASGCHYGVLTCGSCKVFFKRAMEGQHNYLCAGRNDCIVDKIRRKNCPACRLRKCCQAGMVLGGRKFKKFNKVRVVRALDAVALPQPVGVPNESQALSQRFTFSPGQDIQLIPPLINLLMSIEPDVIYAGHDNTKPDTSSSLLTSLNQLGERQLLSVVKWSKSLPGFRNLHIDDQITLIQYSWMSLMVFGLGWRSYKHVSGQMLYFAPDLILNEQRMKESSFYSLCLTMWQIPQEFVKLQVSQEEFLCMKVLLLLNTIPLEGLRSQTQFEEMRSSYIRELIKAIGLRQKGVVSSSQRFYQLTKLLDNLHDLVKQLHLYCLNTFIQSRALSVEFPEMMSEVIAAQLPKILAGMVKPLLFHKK
Type of assay: functional.

Assay [3] addresses T4, Alpha-1A adrenergic receptor (Homo sapiens, UniProt P35348).
T4 sequence (P35348 whole entry): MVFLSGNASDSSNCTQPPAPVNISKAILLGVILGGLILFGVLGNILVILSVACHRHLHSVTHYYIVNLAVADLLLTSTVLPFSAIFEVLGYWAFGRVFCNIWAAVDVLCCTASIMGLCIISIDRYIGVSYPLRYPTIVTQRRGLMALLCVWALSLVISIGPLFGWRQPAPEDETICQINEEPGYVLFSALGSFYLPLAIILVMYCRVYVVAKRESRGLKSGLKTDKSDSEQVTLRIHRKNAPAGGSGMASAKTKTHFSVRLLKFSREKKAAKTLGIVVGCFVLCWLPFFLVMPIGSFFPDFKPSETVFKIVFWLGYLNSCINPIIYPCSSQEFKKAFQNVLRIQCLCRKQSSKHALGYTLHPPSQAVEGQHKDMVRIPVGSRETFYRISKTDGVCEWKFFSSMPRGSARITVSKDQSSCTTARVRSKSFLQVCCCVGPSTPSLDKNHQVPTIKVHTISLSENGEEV
Type of assay: functional, cell-based.
Note: assay procedure not described here.

Chain of 5-hydroxytryptamine receptor 2B (P41595 whole entry): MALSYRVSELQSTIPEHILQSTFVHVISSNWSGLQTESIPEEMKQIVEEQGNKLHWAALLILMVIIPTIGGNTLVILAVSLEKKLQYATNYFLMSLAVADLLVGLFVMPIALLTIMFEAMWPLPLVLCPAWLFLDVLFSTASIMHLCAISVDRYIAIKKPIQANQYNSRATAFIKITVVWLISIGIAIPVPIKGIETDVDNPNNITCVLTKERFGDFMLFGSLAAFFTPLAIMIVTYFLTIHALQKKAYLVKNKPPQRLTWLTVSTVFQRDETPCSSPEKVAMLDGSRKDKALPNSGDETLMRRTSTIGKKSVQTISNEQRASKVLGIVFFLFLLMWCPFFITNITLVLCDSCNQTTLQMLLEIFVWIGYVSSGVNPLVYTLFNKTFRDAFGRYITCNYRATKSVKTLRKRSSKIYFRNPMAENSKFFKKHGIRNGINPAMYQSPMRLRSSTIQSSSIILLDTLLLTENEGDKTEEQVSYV
Chain of Histamine H1 receptor (P35367 whole entry): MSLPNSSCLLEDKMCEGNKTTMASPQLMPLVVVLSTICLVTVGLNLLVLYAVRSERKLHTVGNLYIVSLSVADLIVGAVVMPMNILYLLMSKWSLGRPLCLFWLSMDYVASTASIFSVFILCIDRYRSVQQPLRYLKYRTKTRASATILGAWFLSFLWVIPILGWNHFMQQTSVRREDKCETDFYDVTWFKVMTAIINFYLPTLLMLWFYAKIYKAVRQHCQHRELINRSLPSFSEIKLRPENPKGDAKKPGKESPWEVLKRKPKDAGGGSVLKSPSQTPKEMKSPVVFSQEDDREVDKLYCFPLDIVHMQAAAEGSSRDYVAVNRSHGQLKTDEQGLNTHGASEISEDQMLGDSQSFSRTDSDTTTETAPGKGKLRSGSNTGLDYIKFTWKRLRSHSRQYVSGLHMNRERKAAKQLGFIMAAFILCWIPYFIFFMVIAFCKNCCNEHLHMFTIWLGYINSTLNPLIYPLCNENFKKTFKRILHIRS

As for `O=C(O)c1ccc2nc(-c3cc(Cl)cc(Cl)c3)oc2c1`, the concentration at half-maximal activity (AC50) (in assay [1]; on Histamine H1 receptor; in assay [2]; on Glucocorticoid receptor; at Progesterone receptor; in assay [3]) was greater than 30 µM each time.
Consider `C[C@H](N)C(=O)N[C@@H](CCC(N)=O)C(=O)O` [ALANYL GLUTAMINE] (H-Ala-Gln-OH), for which the AC50 (in assay [1]; at Histamine H1 receptor; in assay [2]; at Glucocorticoid receptor; at Progesterone receptor; in assay [3]) was greater than 30 µM in each case.
For `CCN(CC)CCCN(c1ccccc1)C1Cc2ccccc2C1` [APRINDINE], the AC50 in assay [1] was greater than 30 µM; at Histamine H1 receptor it was 1.18 µM; in assay [2] it was greater than 30 µM; at Glucocorticoid receptor, greater than 30 µM; on Progesterone receptor, greater than 30 µM; in assay [3], 14 µM.
For `C[C@@H](Cc1ccccc1)N(C)Cc1ccccc1` [BENZPHETAMINE], the AC50 in assay [1] is 2.8 µM; on Histamine H1 receptor, greater than 10 µM; in assay [2], greater than 10 µM; on Glucocorticoid receptor, greater than 10 µM; on Progesterone receptor, greater than 10 µM; in assay [3], 13 µM.
On to `CO/N=C(\C(=O)N[C@@H]1C(=O)N2C(C(=O)O)=C(CSc3nc(C)c(CC(=O)O)s3)CS[C@H]12)c1csc(N)n1` [CEFODIZIME], for which the AC50 (in assay [1]; on Histamine H1 receptor; in assay [2]; at Glucocorticoid receptor; on Progesterone receptor; in assay [3]) was greater than 30 µM throughout.
Regarding `CO/N=C(\C(=O)N[C@@H]1C(=O)N2C(C(=O)[O-])=C(C[n+]3ccc(N)n3CCO)CS[C@H]12)c1csc(N)n1` [CEFOSELIS], the AC50 in assay [1] is greater than 30 µM; at Histamine H1 receptor, greater than 30 µM; in assay [2] it was greater than 30 µM; on Glucocorticoid receptor, greater than 30 µM; on Progesterone receptor, greater than 30 µM; in assay [3], 30 µM.
For the compound `CC(=O)OCC1=C(C(=O)O)N2C(=O)[C@@H](NC(=O)Cc3cccs3)[C@H]2SC1` [CEPHALOTHIN], the AC50 (in assay [1]; at Histamine H1 receptor; in assay [2]; on Glucocorticoid receptor; on Progesterone receptor; in assay [3]) was greater than 30 µM in each case.
For `COc1ccc(C(Cl)=C(c2ccc(OC)cc2)c2ccc(OC)cc2)cc1` [CHLOROTRIANISENE], the AC50 was greater than 30 µM in assay [1]; greater than 30 µM on Histamine H1 receptor; greater than 30 µM in assay [2]; greater than 30 µM on Glucocorticoid receptor; greater than 30 µM at Progesterone receptor; 21 µM in assay [3].
Regarding `CCCO[C@H]1[C@@H]([C@@H](COCc2ccc(Cl)cc2)OCc2ccc(Cl)cc2)OC(OCC)[C@@H]1O` (stereo not given in full) [CLOBENOSIDE], the AC50 in assay [1] was greater than 30 µM; on Histamine H1 receptor it was greater than 30 µM; in assay [2], greater than 30 µM; at Glucocorticoid receptor, greater than 30 µM; at Progesterone receptor, 22 µM; in assay [3], greater than 30 µM.
Turning to `C=C(c1ccccc1OCc1cccc(Cl)c1)n1ccnc1` [CROCONAZOLE], the concentration at half-maximal activity (AC50) in assay [1] is greater than 10 µM; on Histamine H1 receptor, greater than 10 µM; in assay [2] it was 8.5 µM; at Glucocorticoid receptor it was 3.46 µM; on Progesterone receptor, greater than 30 µM; in assay [3], 21 µM.
As to `CN(C)CCOC(=O)C(c1ccccc1)C1(O)CCCC1` (stereo not given) [CYCLOPENTOLATE], the AC50 is greater than 10 µM in assay [1]; greater than 30 µM on Histamine H1 receptor; greater than 10 µM in assay [2]; greater than 10 µM on Glucocorticoid receptor; greater than 10 µM on Progesterone receptor.
Regarding `CCN1C(=O)NC(c2ccccc2)C1=O` (stereo not given) [ETHOTOIN], the AC50 (in assay [1]; at Histamine H1 receptor; in assay [2]; at Glucocorticoid receptor; on Progesterone receptor; in assay [3]) was greater than 30 µM each time.
As for `Cc1ccc(S(=O)(=O)NC(=O)N[C@H]2[C@H]3CC[C@@](C)([C@H]2O)C3(C)C)cc1` [GLIBORNURIDE], the AC50 (in assay [1]; on Histamine H1 receptor; in assay [2]; on Glucocorticoid receptor; at Progesterone receptor; in assay [3]) was greater than 30 µM each time.
Consider `O=C(C[S+]([O-])Cc1ccco1)NC/C=C\COc1cc(CN2CCCCC2)ccn1` (stereo not given) [LAFUTIDINE], for which the half-maximal activity concentration (AC50) is greater than 10 µM in assay [1]; greater than 10 µM on Histamine H1 receptor; greater than 10 µM in assay [2]; greater than 10 µM on Glucocorticoid receptor; greater than 10 µM at Progesterone receptor; greater than 30 µM in assay [3].
`CCC(=O)O[C@H](CC(=O)O)C[N+](C)(C)C` [LEVOCARNITINE PROPIONATE]: the AC50 (in assay [1]; at Histamine H1 receptor; in assay [2]; at Glucocorticoid receptor; on Progesterone receptor) was greater than 30 µM each time.
Turning to `O=C(O)c1nn(Cc2ccc(Cl)cc2Cl)c2ccccc12` [LONIDAMINE], the AC50 (in assay [1]; at Histamine H1 receptor; in assay [2]; at Glucocorticoid receptor; on Progesterone receptor; in assay [3]) was greater than 30 µM each time.
On to `CCC1(CC)C(=O)NC(=O)N(C)C1=O` [METHARBITAL], for which the AC50 (in assay [1]; on Histamine H1 receptor; in assay [2]; on Glucocorticoid receptor; on Progesterone receptor) was greater than 10 µM each time.
On to `COC(=O)c1ccc2c(c1)NC(=O)/C2=C(\Nc1ccc(N(C)C(=O)CN2CCN(C)CC2)cc1)c1ccccc1` [NINTEDANIB], for which the AC50 in assay [1] was 11 µM; on Histamine H1 receptor, greater than 30 µM; in assay [2], greater than 30 µM; on Glucocorticoid receptor it was greater than 30 µM; at Progesterone receptor it was greater than 30 µM; in assay [3], greater than 30 µM.
